Results on one molecule are retold here after patent US10975123B2, “Mutant Akt-specific capture agents, compositions, and methods of using and making” (California Institute of Technology, priority 2014, dated 2021).

Where a SMILES comes first, the peptide text is derived from it. [ ]: non-standard residue; d: D form.

In experiment [1] the target is T1, wildtype PH Domain (PHD) of Akt1 (Homo sapiens, UniProt P31749).
T1 construct: The first 124 N-terminal amino acids from full length Akt1 were used as the PH Domain DNA; made in house; host or cells: E. coli
T1 sequence (P31749 1-124): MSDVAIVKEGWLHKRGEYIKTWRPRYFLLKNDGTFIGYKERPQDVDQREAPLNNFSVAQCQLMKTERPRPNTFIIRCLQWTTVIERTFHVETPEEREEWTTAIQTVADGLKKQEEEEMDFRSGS
Briefly: Streptavidin-agarose immunoprecipitation (pulldown), WT. In kind it is binding. Particulars: streptavidin agarose, 1xTBS, western blot band size, in words. Here is the method: Four biligand candidates were chosen based on their hydrophobicity and sequence homology using principal component analysis (FIG. 25). Biligands were synthesized by coupling the 2° ligand onto Rink Amide Resin on the Titan peptide synthesizer. The amide group on the end of the Lys(N3) was capped by shaking the resin with 2 mL acetic anhydride, 2 mL NMP and 0.5 mL DIEA for 3×10 minutes, then washed with NMP. FMOC-Propargylglycine-Otbu (Pra) was clicked onto the Lys(N3) on the 2° ligand by incubating 2 eq of the Pra amino acid with 2 eq CuI and 2 eq ascorbic acid with 1 eq azide on resin in 20% piperidine/NMP for 3 hours. The resin was washed 5×4 mL with a chelating solution of 1 g sodium diethyldithiocarbamate in 20 mL NMP and 1 mL DIEA. The anchor was then built onto the 2° ligand on bead, and an N-terminal PEG5-biotin tag were added. Assays were performed exactly as for the anchor ligands, except for two key differences. The biligand assays were done with 6 ug of GST-tagged PHD protein, instead of the untagged PHD that was used in the anchor pulldowns. The pull-downs were also conducted out of 1% serum in 1×TBS, as opposed to just 1×TBS.
Pulldown assays were done on Streptavidin Agarose resin from Invitrogen. The resin was incubated with N-terminal biotinylated anchor peptide candidates identified via the ClusterLigand sequence analysis. The anchor candidate coated beads were then incubated with either the wildtype or mutant protein to compare the selectivity of the ligands, as well as the binding ability. The bound protein was eluted and western blotted to compare the amount of protein present for each sample.
Relative protein band sizes were analyzed to compare binding between the anchor candidates and were used to determine selectivity for either wildtype or mutant PH Domain (FIG. 11). […] Both of these ligands look fairly selective for their respective PH Domain.

In another experiment the target is T2, GST-Akt1(E17K) protein (Homo sapiens, UniProt P31749, E17K).
T2 construct: 50 μL of full-length GST-E17K Akt1 from SignalChem was treated with 10× molar excess of the anchor ligand; purchased SignalChem
T2 sequence (P31749 whole entry E17K): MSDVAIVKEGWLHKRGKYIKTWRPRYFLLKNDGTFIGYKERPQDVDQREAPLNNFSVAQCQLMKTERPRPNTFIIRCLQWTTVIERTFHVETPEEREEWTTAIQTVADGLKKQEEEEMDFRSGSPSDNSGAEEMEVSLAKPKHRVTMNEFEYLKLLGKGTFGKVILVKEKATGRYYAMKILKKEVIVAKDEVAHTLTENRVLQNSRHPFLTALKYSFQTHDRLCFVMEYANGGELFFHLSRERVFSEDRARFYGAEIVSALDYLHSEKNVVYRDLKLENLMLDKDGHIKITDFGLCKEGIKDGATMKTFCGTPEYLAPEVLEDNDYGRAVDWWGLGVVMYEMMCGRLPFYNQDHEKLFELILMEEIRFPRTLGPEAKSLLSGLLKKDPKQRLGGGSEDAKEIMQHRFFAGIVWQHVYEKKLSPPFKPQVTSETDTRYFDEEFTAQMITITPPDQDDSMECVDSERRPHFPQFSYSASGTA
Kind of experiment: Ligand-directed tosylate labeling with MALDI-TOF MS of tryptic digests. In kind it is binding. The note with it: yleaf with N-terminal tosylate-Cy5 (ligand 5), 10x molar excess, two days room temperature. An excerpt: The selectivity of the yleaf ligand was further verified using the directed labeling technique reported by Tsukiji et al^19. The approach yields information relative to the binding location of the ligand on the protein target. For this method, a payload is attached to the N-terminus of the targeting yleaf ligand through an electrophilic tosylate linker. Upon ligand binding to the protein target, the payload is transferred onto the protein through a nucleophilic SN2 reaction with proximal nucleophilic amino acid side chains (FIG. 3a). The protein can then be trypsin digested and the identity of the fragments containing the payload can be mapped on the protein surface using mass spectrometry (MS). Thus, the site of ligand binding can be estimated. […]
For the assay, yleaf was modified at the N-terminus to contain a tosylate linker attached to a Cy5 dye molecule to enable easy identification of the labeled and digested protein fragments (FIG. 2a and FIG. 16). […] The labeling of protein target was initially confirmed by visualization on a fluorescent gel reader (FIG. 3b) as well as a Western blotting visualization of an experiment in which a biotin-label was substituted for the fluorescent tag. The labeled protein and an unlabeled control were then trypsin digested from the gel and were analyzed by matrix-assisted laser desorption/ionization time-of-flight (MALDI-TOF) MS (FIGS. 18 and 19). […]

`CC(C)C[C@@H](NC(=O)[C@H](N)Cc1ccc(O)cc1)C(=O)N[C@H](CCC(=O)O)C(=O)N[C@H](C)C(=O)N[C@H](Cc1ccccc1)C(N)=O` [yleaf] (H-[dY][dL][dE][dA][dF]-NH2; N-terminus assumed): in experiment [1], the “pulldown of wildtype PH Domain by biotinylated anchor candidates” value was “the least binding to the wildtype”. Besides, the “location of labeled sites on the protein (binding site, off-target binding)” value at GST-Akt1(E17K) protein is listed as “only sites around the expected N-terminal binding site of the yleaf ligand are labeled”.
